Measured values from patent publication US6558900B2, “Regulation of apoptosis and in vitro model for studies thereof” (Emory University, priority 1996, dated 2003).

Tested on: CPP32
Assay: Activation of endogenous CPP32 in HeLa cell S-100 (Western blot; cleavage of 35S-labeled PARP and SREBP-2)
Format: biochemical, human
Conditions: 1 mM nucleotide
Experimental: FIGS. 1A-1D illustrate dATP-dependent activation of CPP32 and DNA fragmentation in vitro. Aliquots (10 μl) of HeLa cell S-100 (50 μg) were incubated alone (lane 1), in the presence of 1 mM ATP (lane 2), or in the presence of 1 mM dATP (lane 3) at 30° C. for 1 hr in a final volume of 20 μl of buffer A. FIG. 1A, samples were subjected to SDS-PAGE and transferred to a nitrocellulose filter, probed with a monoclonal anti-CPP32 antibody, and the antigen/antibody complex was visualized by the ECL method. The filter was exposed to Kodak X-OMAT AR X-ray film for 1 min. In FIG. 1B, an aliquot of 10 μl of in vitro translated, ^35S-labeled PARP was added to each reaction. After 5 min, the samples were subjected to SDS-PAGE and transferred to a nitrocellulose filter. The filter was exposed to film for 2 hr at room temperature. In FIG. 1C, a 5 μl aliquot of in vitro translated, ^35S-labeled SREBP-2 was added to each reaction. After incubation at 30° C. for 30 min, the samples were subjected to SDS-PAGE, the gel was dried and exposed to film for 2 hr at room temperature. In FIG. 1D, a 50 μlaliquot of HeLa cell S-100 (250 μg) was incubated with 6 μl Hamster Liver nuclei in the absence (lane 1), or presence of 1 mM ATP (lane 2) or dATP (lane 3) for 2 hr at 37° C. in a final volume of 60 μl of buffer A. DNA was isolated as described in the Examples and size-separated by agarose gel electrophoresis (2% agarose), and the DNA was visualized by ethidium bromide staining.
Activation of CPP32 and DNA fragmentation are two well characterized biochemical markers of apoptosis and its initiation. With the goal of producing an in vitro system that duplicates apoptosis, we prepared 100,000×g cytosolic supernatant (S-100) from suspension cultures of HeLa cells. The activation of CPP32 is the result of cleavage of its 32 kDa precursor into the 20 kDa NH2-terminal fragment and 11 kDa COOH-terminal fragment [Nicholson et al. (1995) supra], thus the activation of CPP32 in the HeLa cell S-100 was monitored by Western blot analysis using a monoclonal antibody against the 20 kDa fragment of CPP32 (FIG. 1A). The enzymatic activity of CPP32 was assayed by measuring the cleavage of two ^35S-labeled substrates, PARP (FIG. 1B) and SREBP-2 (FIG. 1C). DNA fragmentation was assayed by incubating the HeLa cell S-100 with nuclei isolated from hamster liver followed by genomic DNA extraction and analysis by agarose gel electrophoresis. […] The sizes of the cleaved products of PARP and SREBP-2 were the same as observed in cells undergoing apoptosis [Kaufmann et al. (1993) Cancer Res. 53, 3976-3985; Wang et al. (1996) supra]. […]

In the case of Nc1ncnc2c1ncn2[C@H]1C[C@H](O)[C@@H](COP(=O)(O)OP(=O)(O)OP(=O)(O)O)O1 [dATP, deoxyadenosine-5-triphosphate], the “cleavage of 35S-labeled PARP by activated extract” value is reported as “readily cleaved PARP into 85 kDa and 24 kDa fragments”, the “cleavage of 35S-labeled SREBP-2 by activated extract” value is reported as “SREBP-2 into 55 kDa and 70 kDa fragments” and the “activation of CPP32 in HeLa cell S-100” value (30° C., 1 hr, Western blot) is reported as “most of the CPP32 in the HeLa cell S-100 was activated”.
